Laboratory results published in US6951848B2, “Functionalized heterocycles as modulators of chemokine receptor function and methods of use therefor” (Millennium Pharmaceuticals, Inc.,, priority 2001, dated 2005).
Where a name gives a salt, the structure may show the parent alone.

Tested on: not given
Assay: not given
Conditions: not given

| Structure (SMILES) | melting point |
| --- | --- |
| Cc1[nH]c2ccc(CN)cc2c1C(=O)OCc1ccccc1.Cl | 260 to 261 °C |
| CCN(CC)CCc1ccc2[nH]c(C)c(C(=O)O[C@@H](C)c3ccccc3)c2c1.Cl | 95 to 97 °C |
| Cc1[nH]c2ccc(OCCN3CCOCC3)cc2c1C(=O)OC(C)c1ccccc1.Cl (stereo not drawn) | 45 to 55 °C |
| Cc1[nH]c2ccc(OCCN3CCCC3)cc2c1C(=O)OC(C)c1ccccc1.Cl (stereo not drawn) | 75 to 80 °C |
| Cc1[nH]c2ccc(OCCN3CCNCC3)cc2c1C(=O)OCc1ccccc1 (as salt: hydrochloride) [Example 2, 1-[2-(3-benzyloxycarbonyl-2-methyl-1H-indole-5-yloxy)-ethyl]-piperazin-1-ium; Chloride] | 225 to 229 °C (dec.) |
| Cc1[nH]c2ccc(OCCN3CCN(C(=O)OC(C)(C)C)CC3)cc2c1C(=O)OCc1ccccc1 [Example 1, 5-[2-(4-tert-Butoxycarbonyl-piperazin-1-yl)-ethoxy]-2-methyl-1H-indole-3-carboxylic acid benzyl ester] | 136 to 137 °C |
| Cc1[nH]c2ccc(OCCN3CCN(C)CC3)cc2c1C(=O)OCc1ccccc1 [Example 3, 2-Methyl-5-[2-(4-methyl-piperazin-1-yl)-ethoxy]-1H-indole-3-carboxylic acid benzyl ester] | 143 to 145 °C |
| Cc1[nH]c2ccc(OCCN3CCC(C)C3)cc2c1C(=O)OCc1ccccc1 (stereo not drawn) [Example 4, 2-Methyl-5-[2-(3-methyl-pyrrolidin-1-yl)-ethoxy]-1H-indole-3-carboxylic acid benzyl ester] | 121 to 122 °C |
| Cc1[nH]c2ccc(OCCN3CCC(c4ccccc4)C3)cc2c1C(=O)OCc1ccccc1.Cl (stereo not drawn) [Example 5, 1-[2-(3-benzyloxycarbonyl-2-methyl-1H-indol-5-yloxy)-ethyl]-3-phenyl-pyrrolidinium; Chloride] | 118 to 121 °C |
| Cc1[nH]c2ccc(OCCN(C(C)C)C(C)C)cc2c1C(=O)OCc1ccccc1 [Example 6, 5-(2-Diisopropylamino-ethoxy)-2-methyl-1H-indole-3-carboxylic acid benzyl ester] | 121 to 123 °C |
| CCN(CC)CCOc1ccc2c(c1)c(C(=O)OCc1ccccc1)c(C)n2Cc1ccccc1 [Example 7, 1-Benzyl-5-(2-diethylamino-ethoxy)-2-methyl-1H-indole-3-carboxylic acid benzyl ester] | 74 to 76 °C |
| CCN(CC)CCOc1ccc2c(c1)c(C(=O)OCc1ccccc1)c(C)n2C [Example 8, 1-Methyl-5-(2-diethylamino-ethoxy)-2-methyl-1H-indole-3-carboxylic acid benzyl ester] | 73 to 74 °C |
| CCC(Oc1ccc2[nH]c(C)c(C(=O)OCc3ccccc3)c2c1)C(=O)N(CC)CC (stereo not drawn) [Example 9, 5-(1-Diethylcarbamoyl-propoxy)-2-methyl-1H-indole-3-carboxylic acid benzyl ester] | 129 to 131 °C |
| Cc1[nH]c2ccc(OCCCCN3CCCC3)cc2c1C(=O)OCc1ccccc1 [Example 10, 2-Methyl-5-(4-pyrrolidin-1-yl-butoxy)-1H-indole-3-carboxylic acid benzyl ester] | 152 to 155 °C |
| Cc1[nH]c2ccc(OCCN3CCCCCC3)cc2c1C(=O)OCc1ccccc1 [Example 11, 5-(2-Azepan-1-yl-ethoxy)-2-methyl-1H-indole-3-carboxylic acid benzyl ester] | 141 to 142 °C |
| Cc1[nH]c2ccc(OCCN3CCCCC3)cc2c1C(=O)OCc1ccccc1 [Example 12, 2-Methyl-5-(2-piperidin-1-yl-ethoxy)-1H-indole-3-carboxylic acid benzyl ester] | 140 to 141 °C |
| CCN(CC)CCOc1ccc2[nH]c(C)c(C(=O)OCc3ccccc3)c2c1 [Example 13, 5-(2-Diethylamino-ethoxy)-2-methyl-1H-indole-3-carboxylic acid benzyl ester] | 125 to 126 °C |
| Cc1[nH]c2ccc(OCCN3CC(C)(C)C(C)(C)C3)cc2c1C(=O)OCc1ccccc1 [Example 14, 2-Methyl-5-[2-(3,3,4,4-tetramethyl-pyrrolidin-1-yl)-ethoxy]-1H-indole-3-carboxylic acid benzyl ester] | 181 to 182 °C |
| Cc1[nH]c2ccc(OCCN3CCCC3c3ccccc3)cc2c1C(=O)OCc1ccccc1 (stereo not drawn) [Example 15, 2-Methyl-5-[2-(2-phenyl-pyrrolidin-1-yl)-ethoxy]-1H -indole-3-carboxylic acid benzyl ester] | 141 to 142 °C |
| Cc1[nH]c2ccc(OCCN3CC[C@H](CO)C3)cc2c1C(=O)OCc1ccccc1 [Example 16, 5-[2-((S)-3-Hydroxymethyl-pyrrolidin-1-yl)-ethoxy]-2-methyl-1H -indole-3-carboxylic acid benzyl ester] | 126 to 127 °C |
| Cc1[nH]c2ccc(OCCN3CCCC3c3cccnc3)cc2c1C(=O)OCc1ccccc1 (stereo not drawn) [Example 17, 2-Methyl-5-[2-(2-pyridin-3-yl-pyrrolidin-1-yl)-ethoxy]-1H-indole-3-carboxylic acid benzyl ester] | 126 to 127 °C |
| CCCN(CCC)CCOc1ccc2[nH]c(C)c(C(=O)OCc3ccccc3)c2c1 [Example 18, 5-(2-Dipropylamino-ethoxy)-2-methyl-1H-indole-3-carboxylic acid benzyl ester] | 123 to 125 °C |

The remaining lines, values ahead:

| melting point | Structure (SMILES) |
| --- | --- |
| 76 to 78 °C | Cc1[nH]c2ccc(CCN3CCCC3)cc2c1C(=O)OCc1ccccc1.Cl [Example 56, 2-Methyl-5-(2-pyrrolidin-1-yl-ethyl)-1H-indole-3-carboxylic acid benzyl ester hydrochloride] |
| 167 to 168 °C | Cc1[nH]c2ccc(CCN3CCN(C)CC3)cc2c1C(=O)OCc1ccccc1 [Example 57, 2-Methyl-5-[2-(4-methyl-piperazin-1-yl)-ethyl]-1H-indole-3-carboxylic acid benzyl ester] |
| 122 to 124 °C | Cc1[nH]c2ccc(CCN(C)C3CCCCC3)cc2c1C(=O)OCc1ccccc1 [Example 58, 5-[2-(Cyclohexyl-methyl-amino)-ethyl]-2-methyl-1H-indole-3-carboxylic acid benzyl ester] |
| 159 to 161 °C | Cc1[nH]c2ccc(CCN3CCCCC3)cc2c1C(=O)OCc1ccccc1 [Example 59, 2-Methyl-5-(2-piperidin-1-yl-ethyl)-1H-indole-3-carboxylic acid benzyl ester] |
| 134 to 135 °C | Cc1[nH]c2ccc(CCN(CC(C)C)CC(C)C)cc2c1C(=O)OCc1ccccc1 [Example 60, 5-(2-Diisobutylamino-ethyl)-2-methyl-1H-indole-3-carboxylic acid benzyl ester] |
| 65 to 68 °C | CNCCc1ccc2[nH]c(C)c(C(=O)OCc3ccccc3)c2c1 [Example 61, 2-Methyl-5-(2-methylamino-ethyl)-1H-indole-3-carboxylic acid benzyl ester] |
| 109 to 111 °C | Cc1[nH]c2ccc(CCN(C)C3CCOCC3)cc2c1C(=O)OCc1ccccc1 [Example 62, 2-Methyl-5-{2-[methyl-(tetrahydro-pyran-4-yl)-amino]-ethyl}-1H-indole-3-carboxylic acid benzyl ester] |
| 106 to 108 °C | CCN(CC)Cc1ccc2[nH]c(C)c(C(=O)OCc3ccccc3)c2c1 [Example 64, 5-Diethylaminomethyl-2-methyl-1H-indole-3-carboxylic acid benzyl ester] |
| 135 to 140 °C | Cc1[nH]c2ccc(OCCN(C)C)cc2c1C(=O)O[C@@H](C)c1ccccc1 [Example 66, 5-(2-Dimethylamino-ethoxy)-2-methyl-1H-indole-3-carboxylic acid (S)-1-phenyl-ethyl ester] |
| 110 to 116 °C | Cc1[nH]c2ccc(OCCN3CCCC3)cc2c1C(=O)OCc1ccccc1 [Example 69, 2-Methyl-5-(pyrrolidin-1-yl-ethoxy)-1H-indole-3-carboxylic acid benzyl ester] |
| 94 to 98 °C | Cc1[nH]c2ccc(OC(C)C(C)N3CCCC3)cc2c1C(=O)OCc1ccccc1 (stereo not drawn) [Example 70, 2-Methyl-5-(1-methyl-2-pyrrolidin-1-yl-propoxy)-1H-indole-3-carboxylic acid benzyl ester] |
| 97 to 100 °C | Cc1[nH]c2ccc(CCNC3CCCCC3)cc2c1C(=O)OCc1ccccc1 [Example 71, 5-(2-Cyclohexylamino-ethyl)-2-methyl-1H-indole-3-carboxylic acid benzyl ester] |

Target: T1, CCR-5 (Homo sapiens, UniProt P51681)
T1 construct: expressed in transfected cells; host or cells: L1.2 cells (CCR-5/L1.2 transfectants), membranes
Assay: 125I-gp120/sCD4/CCR-5 receptor binding assay
Conditions: membranes from CCR-5/L 1.2 cells, 3 nM sCD4, 0.1 nM 125I-gp120 (HIV-1 JR-FL); read-out: IC50 for inhibition of binding of sCD-4/GP-120 to CCR-5
Protocol: CCR-5 Receptor Binding Assay The compounds of the present invention were evaluated using the following CCR-5 receptor binding assay. The ^125I-gp120/sCD4/CCR-5 binding assay was carried out similarly as described in Wu et al., Nature, 1996;384:179-183. Briefly, the envelope gp120 protein derived from HIV-1 JR-FL (Trkola et al., Nature, 1996;384:184-186), an M-tropic strain, was iodinated using solid phase lactoperoxidase to a specific activity of 20 μCi/μg. For each binding reaction (in a final volume of 100 μL binding buffer [50 mM HEPES, pH 7.5, 1 mM CaCl2, 5 mM MgCl2, and 0.5% BSA]), 25 μL (2.5 μg) of membranes prepared from CCR-5/L 1.2 cells were mixed with 25 μL (3 nM) sCD4, followed by 25 μL (0.1 nM) radio-labeled gp120 in the presence or absence of 25 μL compound dissolved in DMSO (final concentration of DMSO 0.5%). The reactions were incubated at room temperature for 45 to 60 minutes and stopped by transferring the mixture to GFB filter plates, which were then washed 3 to 4 times with binding buffer containing 0.5 M NaCl. The plates were dried and MicroScint scintillation fluid was added before counting. […] The compounds of Examples 56 and 66 had IC50s of about […]. […] Preferred compounds can inhibit the binding of sCD-4/GP-120 to CCR-5 with IC50s of about 10 μM to about 100 μM or about 1 nM to about 10 μM

T1 sequence (P51681 whole entry): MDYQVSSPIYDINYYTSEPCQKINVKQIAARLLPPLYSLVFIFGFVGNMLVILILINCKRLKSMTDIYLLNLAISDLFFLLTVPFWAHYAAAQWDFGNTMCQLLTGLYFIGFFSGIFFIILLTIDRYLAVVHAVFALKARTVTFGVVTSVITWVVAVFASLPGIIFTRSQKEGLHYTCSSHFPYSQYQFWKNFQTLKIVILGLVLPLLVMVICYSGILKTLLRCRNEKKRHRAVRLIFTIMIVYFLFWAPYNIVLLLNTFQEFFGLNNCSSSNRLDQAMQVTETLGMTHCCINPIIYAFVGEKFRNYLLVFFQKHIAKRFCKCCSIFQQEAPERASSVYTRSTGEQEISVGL

| Structure (SMILES) | IC50 |
| --- | --- |
| Cc1[nH]c2ccc(OCCN3CCC(c4ccccc4)C3)cc2c1C(=O)OCc1ccccc1.Cl (stereo not drawn) [Example 5, 1-[2-(3-benzyloxycarbonyl-2-methyl-1H-indol-5-yloxy)-ethyl]-3-phenyl-pyrrolidinium; Chloride] | 18 µM |
| CCN(CC)CCOc1ccc2c(c1)c(C(=O)OCc1ccccc1)c(C)n2Cc1ccccc1 [Example 7, 1-Benzyl-5-(2-diethylamino-ethoxy)-2-methyl-1H-indole-3-carboxylic acid benzyl ester] | 18.2 µM |
| Cc1[nH]c2ccc(NCCN3CCCC3)cc2c1C(=O)OCc1ccccc1 [Example 20, 2-Methyl-5-(2-pyrrolidine-1-yl-ethylamino)-1H-indole-3-carboxylic acid benzyl ester] | 17.5 µM |

The next lines start with the values.

| IC50 | Structure (SMILES) |
| --- | --- |
| ~4.8 µM | Cc1[nH]c2ccc(CCN3CCCC3)cc2c1C(=O)OCc1ccccc1.Cl [Example 56, 2-Methyl-5-(2-pyrrolidin-1-yl-ethyl)-1H-indole-3-carboxylic acid benzyl ester hydrochloride] |
| 13.9 ± 1.6 µM | Cc1[nH]c2ccc(CCN(C)C3CCOCC3)cc2c1C(=O)OCc1ccccc1 [Example 62, 2-Methyl-5-{2-[methyl-(tetrahydro-pyran-4-yl)-amino]-ethyl}-1H-indole-3-carboxylic acid benzyl ester] |
| ~4.8 µM | Cc1[nH]c2ccc(OCCN(C)C)cc2c1C(=O)O[C@@H](C)c1ccccc1 [Example 66, 5-(2-Dimethylamino-ethoxy)-2-methyl-1H-indole-3-carboxylic acid (S)-1-phenyl-ethyl ester] |
| 20.3 ± 2.8 µM | Cc1[nH]c2ccc(OCCN3CCCC3)cc2c1C(=O)OCc1ccccc1 [Example 69, 2-Methyl-5-(pyrrolidin-1-yl-ethoxy)-1H-indole-3-carboxylic acid benzyl ester] |
| 5.52 ± 1.1 µM | Cc1[nH]c2ccc(OC(C)C(C)N3CCCC3)cc2c1C(=O)OCc1ccccc1 (stereo not drawn) [Example 70, 2-Methyl-5-(1-methyl-2-pyrrolidin-1-yl-propoxy)-1H-indole-3-carboxylic acid benzyl ester] |
